Molecules are shown by their SMILES.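 Step 1: Grow cells in 96-well plates. Step 2: Expose to compound for 48 hours at 5 concentrations. Step 3: Interpolate endpoints linearly; if unreached, use highest concentration. Abbreviation: GI50, concentration required for 50% inhibition of growth. TGI: concentration producing complete growth inhibition.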

Results on 8 compounds are retold here after PubChem BioAssay (NCI).

Holding throughout (test): growth of human tumour cells (NCI), 48 h
Experiment [1] has as its system OVCAR-8 ovarian.
Experiment [2] deals with HOP-62 NSCLC.
Experiment [3] concerns SK-OV-3 ovarian.
The subject of experiment [4] is KM12 colon.
For experiment [5], the system named is SR leukemia.
Experiment [6] concerns NCI-H460 lung.
Experiment [7] concerns CCRF-CEM leukemia.
In experiment [8] the test system is NCI-H23 lung.
In experiment [9] the test system is NCI-H226 lung.
In experiment [10] the test system is RXF 393 renal.

`Cc1cc(=O)[nH]c(CNC(=O)c2ccc3ccccc3c2)n1`: the TGI in experiment [1], in experiment [2], in experiment [3], in experiment [4], in experiment [5] and in experiment [6] was above 100 µM throughout. In addition, the TGI in experiment [7], in experiment [8], in experiment [9] and in [10] was above 100 µM in each case.

Turning to `COc1cc(OC)cc(Oc2cnc3cc(N)cc(N)c3n2)c1`, the GI50 in experiment [1] was 22.6 µM; in experiment [2], 16.9 µM; in experiment [3], 23.7 µM; in experiment [4], 10.3 µM; in experiment [5] it was 11.3 µM; in experiment [6], 19.4 µM. Besides, the GI50 in experiment [7] was 28.5 µM; in [8] it was 14.6 µM; in experiment [9], 17.1 µM; in [10] it was 15.4 µM. Besides, the TGI in experiment [1] was 52.5 µM; in experiment [2], 36.6 µM; in experiment [3], 74.5 µM; in experiment [4], 24.1 µM; in experiment [5], 26.1 µM; in experiment [6], 41.2 µM. Further, the TGI is above 100 µM in [7], 28.8 µM in [8], 38 µM in experiment [9] and 29 µM in experiment [10].

As for `COC(=O)c1cc(NC(=O)c2cc(NC(=O)c3cc([N+](=O)[O-])n(C)c3)cn2C)cn1C`, the GI50 in [1] is above 100 µM; in [2] it was 6.4 µM; in experiment [3], 45.3 µM; in [4], 80.8 µM; in experiment [5], 39.3 µM; in [6] it was above 100 µM. For the same compound, the GI50 was 54 µM in [7], 24.5 µM in experiment [8], 39.9 µM in experiment [9] and above 100 µM in experiment [10]. For the same compound, the TGI in [1], in [2], in [3], in experiment [4], in experiment [5] and in experiment [6] was above 100 µM throughout. Moreover, the TGI in experiment [7], in [8], in experiment [9] and in experiment [10] was above 100 µM in each case.

On to `COc1ccc2c(c1)[n+]([O-])c(-c1cccc(Cl)c1)c(N)[n+]2[O-]`, for which the TGI in experiment [1], in [2], in experiment [3], in [4], in [5] and in experiment [6] was above 100 µM throughout. Also, the TGI in experiment [7] is above 100 µM; in experiment [8], 65.6 µM; in experiment [9], above 100 µM; in experiment [10], above 100 µM.

Regarding `COC1=CC(c2ccc[nH]2)=N/C1=C\c1[nH]c(C)c(C(=O)CCC(=O)Oc2ccc3c(c2)CCC2C3CC[C@]3(C)[C@@H](O)CC[C@@H]23)c1C` (some centres not stated), the GI50 was 3.94 µM in experiment [1]; 1.87 µM in experiment [2]; 5.56 µM in [3]; 3 µM in experiment [4]; 0.643 µM in experiment [5]; 3.07 µM in [6]. Moreover, the GI50 is 0.304 µM in experiment [7], 3.56 µM in experiment [8], 4.77 µM in experiment [9] and 4.71 µM in experiment [10]. In addition, the TGI in experiment [1] was above 100 µM; in [2], 4.95 µM; in experiment [3], above 100 µM; in experiment [4], above 100 µM; in experiment [5], 5.1 µM; in experiment [6], above 100 µM. For the same compound, the TGI is above 100 µM in experiment [7], above 100 µM in experiment [8], above 100 µM in experiment [9] and 69.8 µM in [10].

`CN1CCN(C(=O)[C@@]2(C)CC[C@]3(C)CC[C@]4(C)C(=CC[C@@H]5[C@@]6(C)CCC(=O)NC(C)(C)[C@@H]6CC[C@]54C)[C@@H]3C2)CC1`: the GI50 is 3.94 µM in experiment [1]; 1.56 µM in experiment [2]; 1.84 µM in experiment [3]; 1.56 µM in experiment [4]; 0.391 µM in [5]; 1.69 µM in experiment [6]. Also, the GI50 in [7] was 1.58 µM; in [8] it was 2.48 µM; in [9], 4.14 µM; in [10], 1.06 µM. For the same compound, the TGI in [1] is 14.8 µM; in experiment [2], 3.13 µM; in experiment [3] it was 3.87 µM; in [4] it was 3.13 µM; in experiment [5] it was 4.47 µM; in [6], 3.3 µM. Moreover, the TGI was found to be 4.43 µM in [7], 8.91 µM in experiment [8], 21.4 µM in experiment [9] and 2.52 µM in [10].

For the compound `C/C(CCC(=O)O)=N/Nc1ccc([N+](=O)[O-])cc1`, the GI50 is 42.6 µM in [1]; above 100 µM in experiment [2]; above 100 µM in experiment [3]; 0.839 µM in [4]; 9.3 µM in experiment [5]; 3.12 µM in experiment [6]. Further, the GI50 in experiment [7] was 0.696 µM; in experiment [8], above 100 µM; in [9], above 100 µM; in experiment [10] it was above 100 µM. Further, the TGI in [1], in [2], in experiment [3], in experiment [4], in experiment [5] and in experiment [6] was above 100 µM each time. The TGI in experiment [7], in experiment [8], in experiment [9] and in experiment [10] was above 100 µM each time.

For `CC1CCC2C(C)C(=O)OC3OC4(C)CCC1C32OO4` (configuration not stated), the GI50 in experiment [1], in [2], in experiment [4], in experiment [5], in experiment [6] and in experiment [8] was above 100 µM each time. Further, the GI50 in [9] was above 100 µM. Besides, the TGI in [1], in experiment [2], in experiment [3], in experiment [4], in [5] and in experiment [6] was above 100 µM each time. Moreover, the TGI in experiment [7], in experiment [8], in [9] and in experiment [10] was above 100 µM in each case.
